In PubChem BioAssay (NCI) one finds GI50 and TGI data, which are given here for ten compounds.

Common to all, as to assay: inhibition of tumour cell growth, NCI panel, 48 h
Test [1] relates to MALME-3M melanoma.
In test [2] the test system is MDA-MB-231 breast.
Test [3] concerns NCI-H23 lung.
Test [4] has as its system NCI-H460 lung.
The subject of test [5] is OVCAR-5 ovarian.
The subject of test [6] is SF-268 CNS.
In test [7] the test system is SK-MEL-2 melanoma.
Test [8] deals with SK-OV-3 ovarian.
Test [9] relates to TK-10 renal.
For test [10], the system named is UACC-62 melanoma.

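Method: 48-hour compound exposure of cells in 96-well plates, five concentrations, linear interpolation of endpoints. The concentration for 50% growth inhibition is given as GI50. TGI: concentration producing complete growth inhibition.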

With `CC(=O)c1cc(-c2ccccc2N)n(-c2ccc3c(c2)OCO3)c1C`, the GI50 in test [1] was 2880 nM; in test [2] it was 134 nM; in test [3] it was 218 nM; in test [4], 169 nM; in test [5] it was 268 nM; in test [6], 400 nM. Further, the GI50 in [7] is 310 nM; in [8], 292 nM; in [9] it was 623 nM; in test [10], 227 nM. In addition, the TGI in [1] is greater than 83300 nM; in test [2], greater than 77000 nM; in test [3] it was 97600 nM; in test [4], 13200 nM; in [5], greater than 100000 nM; in [6], greater than 100000 nM. For the same compound, the TGI in test [8] was 45300 nM; in test [9], greater than 100000 nM; in test [10] it was 23000 nM.

Take `CCC[CH2][Sn]1([CH2]CCC)[O]C(=O)c2ccc(N)cc2[O]1`: the GI50 in test [1] was 144 nM; in test [2] it was 185 nM; in test [3] it was 336 nM; in test [4], 1730 nM; in test [5], 1770 nM; in test [6], 259 nM. Further, the GI50 in [7] was 141 nM; in test [8] it was 1340 nM; in test [9] it was 528 nM; in test [10], 364 nM. The TGI in [1] was determined as 1180 nM; in [2], 1420 nM; in test [3] it was 1610 nM; in [4], 4210 nM; in [5], 3300 nM; in [6], 1500 nM. Moreover, the TGI in [7] came out at 913 nM; in test [8] it was 2920 nM; in test [9] it was 1690 nM; in test [10], 1830 nM.

Take `C/C(=N\NC(=S)N1CCN(c2ccccn2)CC1)c1nccs1`: the TGI in test [1] was 18500 nM; in [2] it was 20000 nM; in [3], 13800 nM; in test [4] it was 2300 nM; in test [5], 27400 nM; in test [6], greater than 54200 nM. The TGI in [7] was 9900 nM; in test [8], 18300 nM; in test [9], 20000 nM; in test [10], 834 nM. The GI50 was 796 nM in test [2], 64.3 nM in test [3] and 54.4 nM in test [5].

On to `Nc1cc2[nH]cnc2c(=O)[nH]1`, for which the TGI is 298000 nM in test [1]; greater than 300000 nM in [2]; greater than 300000 nM in test [3]; greater than 300000 nM in test [4]; greater than 289000 nM in test [5]; greater than 300000 nM in [6]. For the same compound, the TGI in test [7] was 125000 nM; in [8], greater than 188000 nM; in test [9], greater than 300000 nM; in test [10], greater than 300000 nM.

On to `CC(C(=O)O)c1ccc(-c2ccccc2)c(F)c1` (stereo unspecified), for which the TGI in test [1], in [2], in [3], in test [4], in [5] and in test [6] was greater than 100000 nM throughout. The TGI in test [7], in [8], in test [9] and in test [10] was greater than 100000 nM in each case.

As to `N=c1ccc2nc3c(cc(N)c4ccccc43)oc-2c1`, the GI50 in test [1] is 169 nM; in [2], 179 nM; in test [3], 179 nM; in [4], 223 nM; in test [5] it was 348 nM; in [6], 431 nM. Besides, the GI50 in test [7] is 407 nM; in test [8], 477 nM; in test [9], 737 nM; in test [10] it was 197 nM. For the same compound, the TGI was found to be 362 nM in [1]; 1210 nM in test [2]; 523 nM in [3]; 565 nM in test [4]; 1200 nM in test [5]; 1750 nM in test [6]. Besides, the TGI in test [7] was 1610 nM; in [8] it was 1730 nM; in test [9], 2400 nM; in test [10], 539 nM.

Turning to `C[C@]12CC[C@H]3[C@@H](CC[C@]4(O)C[C@@H](O)CC[C@]34CO)[C@@]1(O)CC[C@@H]2C1=CC(=O)OC1`, the TGI in test [1] is 6470 nM; in test [2] it was greater than 51300 nM; in [3], 4980 nM; in test [4], 1810 nM; in [5], 10500 nM; in [6], 3250 nM. Moreover, the TGI in test [7] was 8230 nM; in test [8], 6720 nM; in test [9] it was 4910 nM; in test [10], 11400 nM.

As to `Cc1nn(CNc2ccccc2C(F)(F)F)c(=S)n1/N=C/c1ccc(F)cc1`, the GI50 in [1] is greater than 100000 nM; in test [2], 25900 nM; in [3], greater than 100000 nM; in test [4] it was greater than 100000 nM; in test [5] it was 73000 nM; in test [6], greater than 100000 nM. Moreover, the GI50 in test [7] was greater than 100000 nM; in [8] it was greater than 100000 nM; in [9], 53800 nM; in [10], 35400 nM. Moreover, the TGI in test [1], in test [2], in test [3], in test [4], in test [5] and in test [6] was greater than 100000 nM throughout. Moreover, the TGI in test [7], in [8], in [9] and in test [10] was greater than 100000 nM throughout.

For `Clc1ccc2ns[s+]c2c1`, the TGI in [1] was greater than 100000 nM; in test [2], greater than 100000 nM; in [3], greater than 46400 nM; in test [4], greater than 100000 nM; in test [5], greater than 100000 nM; in test [6], greater than 100000 nM. For the same compound, the TGI is greater than 82500 nM in [7], greater than 100000 nM in test [8], greater than 61100 nM in [9] and greater than 100000 nM in [10].

Turning to `O=C(N/N=C/c1ccc(Cl)cc1)c1[nH]c2ccc(Cl)cc2c1-c1ccccc1`, the GI50 in test [1] is 17800 nM; in test [2], 201 nM; in [3] it was 328 nM; in test [4] it was 328 nM; in test [5], 573 nM; in test [6], 161 nM. The GI50 was 332 nM in test [7], 387 nM in test [8], 3300 nM in test [9] and 191 nM in [10]. In addition, the TGI in test [1] was 76400 nM; in test [2] it was 633 nM; in [3], 35500 nM; in test [4] it was 3990 nM; in test [5] it was greater than 100000 nM; in test [6] it was greater than 42300 nM. Moreover, the results for the TGI in [7], in test [9] and in [10] were 35500 nM, 59700 nM and greater than 52500 nM, respectively.
